Test results as given in patent publication US8815523B2, “Method for live-cell activity assay” (Korea Institute of Science and Technology, priority 2010, dated 2014).

What was measured:
Type in all cases: cell-based
[1] = test system: intracellular caspases; experiment: Nanowire sandwich assay of intracellular caspase activity, TAMRA-labelled substrate peptide, fluorescence microscope; conditions: 200 nM apoptosis inducing agent in medium, 4 hours; 555 nm excitation/590 nm emission; FIG. 6D
Procedure: Since the fragments released into cells have TAMRA dye and can be identified by fluorescence microscope, activation of caspases may be confirmed based thereon.
As described in Example 5, peptides were fixed to nanowires using SMPH linker, and the peptide-fixed nanowires were positioned down, cell-fixed nanowire were positioned up, and they were contacted in a sandwich manner and incubated in DMEM containing penicillin (100 units/ml), streptomycin (0.1 mg/ml), 10% FBS and 200 nM Staurosporine (apoptosis inducing agent, Sigma) at 37° C., 5% CO2 for 4 hours.

[2] = test system: intracellular caspases; experiment: Nanowire sandwich assay of intracellular caspase activity, mass analysis (MALDI-TOF) of substrate peptide; conditions: 500 nM Staurosporine, 18 hours; FIG. 8C
[3] = test system: Protein tyrosine phosphatase (PTP) in HeLa cells; experiment: Nanowire sandwich assay of intracellular PTP activity with PTP inhibitors (MALDI-TOF of substrate peptide); conditions: 100 μM sodium orthovanadate and 40 μM α-bromo-4-hydroxyacetophenone given together, 40 minutes pre-incubation, then 1 hour sandwich incubation, FIG. 5C
Procedure: Specifically, the silicon nanowires prepared in Example 1 were washed with 100% (v/v) isopropyl alcohol before use and dried at room temperature, and then, introduced in 2 ml of toluene solution containing 100 μl of APTMS (Aminopropyl trimethoxysilane), reacted at room temperature for 2 hours, and washed 3 times respectively with toluene, 100% ethanol and distilled water, and finally washed with PBS (Phosphate Buffered Saline) to complete silanization so that the surface of the silicon nanowire has positively charged ammonium group. […]
The cell-fixed nanowires were positioned down, the PTP substrate peptide-fixed nanowires were positioned up, and they were contacted with each other, and then, incubated in DMEM medium containing penicillin (100 units/ml), streptomycin (0.1 mg/ml), and 10% FBS at 37° C., 5% CO2 for 1 hour. After incubation, the cell-fixed silicon nanowires and the peptide-fixed nanowires were separated from each other, and the peptide-fixed nanowires were washed with PBS and introduced in a buffer containing 50 mM Tris-HCl, pH 7.5, 0.5 mM EDTA, and 1 mM DTT (Dithiothreitol), and TEV protease (10 units/150 μl, Invitrogen) were added and treated at room temperature for 2 hours, and then, desalting was conducted with Zip-TIP (MILLIPORE), and changes of peptides were analyzed by MALDI-TOF (Applied Biosystems). […]

SMILES	intracellular caspase activation: TAMRA dye-containing peptide fragments released into the cells [1]	cleavage of caspase substrate peptide (mass peak of 1041 dalton) [2]	1204 dalton peak (dephosphorylated PTP substrate peptide) in MALDI-TOF [3]
CN[C@@H]1C[C@H]2O[C@@](C)([C@@H]1OC)n1c3ccccc3c3c4c(c5c6ccccc6n2c5c31)C(=O)NC4 [Staurosporine]	intracellular caspases are activated	cleaved by caspase activated by staurosporine	
[Na+].[Na+].[Na+].[O]=[V]([O-])([O-])[O-] [sodium orthovanadate]			remarkably reduced
O=C(CBr)c1ccc(O)cc1 [α-bromo-4-hydroxyacetophenone]			remarkably reduced
